Test system: yeast genes (level of expressed mRNA)
Assay: DNA chip analysis of expressed mRNA of yeast genes after 2 h culture with a toxic chemical substance
Type: cell-based, Saccharomyces cerevisiae S288C
Details: for The level of expressed mRNA in the presence of chemical substance/ (ratio to absence of chemical substance): stress protein genes, DNA chip
Experimental: Yeast (Saccharomyces cerevtisiae S288C (α SUC2mal mel gap2 CUP1)) were cultured at 25° C. on YPD medium (yeast extract 1%, polypepton 2%, glucose 2%). One of toxic chemical substances was added to the cell at logarithmic growth phase, and the cell was further cultured for two hours. Cell was cultured without any chemical substance in the same condition, and was used as control. Concentrations of the chemical substances were defined to inhibit the growth of the yeast but not lead to death.
After the completion of cultivation, the culture was centrifuged to collect the cells. To the cells, sodium acetate buffer (50 mM sodium acetate, 10 mM EDTA, 1% SDS) was added, and the mixture was shaken at 65° C. for five minutes, followed by returning to room temperature, and obtaining the supernatant, which procedure was repeated two times. To the supernatant, ½ amount of a solution of phenol/chloroform was added, and the mixture was centrifuged to give a supernatant, which was added with an equal amount of chloroform, and the mixture was centrifuged to give a supernatant. To the supernatant, an equal amount of isopropanol containing 0.3 M sodium acetate was added, and the mixture was allowed to stand at room temperature for 30 minutes, after which the mixture was centrifuged to give a sediment of the whole RNAs. Seventy % ethanol was added to the sediment, and the mixture was again centrifuged to give a sediment, which was then dried and dissolved in water. mRNA was isolated from the whole RNAs as followings. In view of the fact that a poly A chain is attached to the 3′ terminus of mRNA, a polynucleotide having a poly T structure which was immobilized on the surface of latex beads was used to trap the mRNA, and then the mRNA was washed and eluted with spine column (Oligotex-dT30<Super>mRNA Purification Kit, Takara). Reverse transcription of the mRNA was conducted with a reverse transcriptase (Super Script II Reverse Transcriptase; catalogue No. 18064-014, GibcoBRL) using fluorescence-labeled nucleotides to give cDNAs that were introduced with Cy3-dUTP or Cy5-dUTP during the reverse transcription.
The labeled cDNAs were dissolved in TE buffer (10 mM Tris-HCl/1 mM EDTA, pH8.0), and the solution was dropped on the DNA chip containing the whole genes of yeast (DNA Chip Research Inc. Japan) so that the cDNAs were hybridized on the DNA chip at 65° C. for over 12 hours. The fluoresces intensity of the DNA chip was read with a scanner, and the ratio relative to the fluorescence intensity resulting from the absence of chemical substance was estimated as the following, which is shown in Tables 1 to 9: [formula]
In the Tables, “Intensity” indicated in the rightmost column is a value of the level of expressed mRNA of each gene in control cells as divided by the average level of the expressions of the whole genes.

Q: How did the “The level of expressed mRNA in the presence of chemical substance/The level of expressed mRNA in the absence of chemical substance” value (yeast gene YIL140W) turn out when `CCCCC[C@H](O)CC(=O)CCc1ccc(O)c(OC)c1` [(13), gingerol] was run?
A: 0.5

Q: And the “The level of expressed mRNA in the presence of chemical substance/ (in its absence), gene YJL070C” value (yeast gene YJL070C, ratio of DNA chip fluorescence intensity to that without chemical substance)?
A: 1.8

Q: And the “The level of expressed mRNA in the presence of chemical substance/The level of expressed mRNA in the absence of chemical substance” value (yeast gene YJL073W)?
A: 1.6

Q: What about the “The level of expressed mRNA in the presence of chemical substance/The level of expressed mRNA in the absence of chemical substance” value (yeast gene YJL089W) of the same molecule?
A: 1.8

Q: And the “The level of expressed mRNA in the presence of chemical substance/ (ratio to absence), gene YJL096W” value (yeast gene YJL096W, mitochondria-located protein genes, 2 h culture with chemical)?
A: 0.7

Q: What about the “The level of expressed mRNA in the presence of chemical substance/The level of expressed mRNA in the absence of chemical substance” value (yeast gene YJL116C) of the same molecule?
A: 4.3

Q: And the “The level of expressed mRNA in the presence of chemical substance/ (ratio to absence of chemical substance)” value (yeast gene YJL158C)?
A: 0.4

Q: What about the “The level of expressed mRNA in the presence of chemical substance/ (in its absence), gene YJL167W” value (yeast gene YJL167W, ratio of DNA chip fluorescence intensity to that without chemical substance) of the same molecule?
A: 0.9

Q: And the “The level of expressed mRNA in the presence of chemical substance/ (ratio to absence), gene YJL180C” value (yeast gene YJL180C, mitochondria-located protein genes, 2 h culture with chemical)?
A: 1.2

Q: And the “The level of expressed mRNA in the presence of chemical substance/ (in its absence), gene YJL216C” value (yeast gene YJL216C, ratio of DNA chip fluorescence intensity to that without chemical substance)?
A: 1.1

Q: What about the “The level of expressed mRNA in the presence of chemical substance/The level of expressed mRNA in the absence of chemical substance” value (yeast gene YJR004C) of the same molecule?
A: 0.3

Q: What about the “The level of expressed mRNA in the presence of chemical substance/The level of expressed mRNA in the absence of chemical substance” value (yeast gene YJR086W) of the same molecule?
A: 0.9

Q: What about the “The level of expressed mRNA in the presence of chemical substance/ (ratio to absence of chemical substance)” value (yeast gene YJR090C) of the same molecule?
A: 2.2

Q: What about the “The level of expressed mRNA in the presence of chemical substance/The level of expressed mRNA in the absence of chemical substance” value (yeast gene YKL008C) of the same molecule?
A: 1.7

Q: What about the “The level of expressed mRNA in the presence of chemical substance/The level of expressed mRNA in the absence of chemical substance” value (yeast gene YKL013C) of the same molecule?
A: 1.3

Q: And the “The level of expressed mRNA in the presence of chemical substance/The level of expressed mRNA in the absence of chemical substance” value (yeast gene YKL039W)?
A: 1.9

Q: What about the “The level of expressed mRNA in the presence of chemical substance/The level of expressed mRNA in the absence of chemical substance” value (yeast gene YKL041W) of the same molecule?
A: 1.3

Q: What about the “The level of expressed mRNA in the presence of chemical substance/The level of expressed mRNA in the absence of chemical substance” value (yeast gene YKL096W) of the same molecule?
A: 0.1

Q: What about the “The level of expressed mRNA in the presence of chemical substance/ (ratio to absence of chemical substance)” value (yeast gene YKL164C) of the same molecule?
A: 0.9

Q: What about the “The level of expressed mRNA in the presence of chemical substance/The level of expressed mRNA in the absence of chemical substance” value (yeast gene YKL165C) of the same molecule?
A: 3.2

Q: And the “The level of expressed mRNA in the presence of chemical substance/The level of expressed mRNA in the absence of chemical substance” value (yeast gene YKL193C)?
A: 2.1

Q: What about the “The level of expressed mRNA in the presence of chemical substance/ (in its absence), gene YKR009C” value (yeast gene YKR009C, ratio of DNA chip fluorescence intensity to that without chemical substance) of the same molecule?
A: 1.8

Q: What about the “The level of expressed mRNA in the presence of chemical substance/ (in its absence), gene YKR034W” value (yeast gene YKR034W, ratio of DNA chip fluorescence intensity to that without chemical substance) of the same molecule?
A: 1.2

Q: What about the “The level of expressed mRNA in the presence of chemical substance/ (ratio to absence of chemical substance)” value (yeast gene YKR053C) of the same molecule?
A: 0.7

Q: What about the “The level of expressed mRNA in the presence of chemical substance/ in its absence, gene YKR058W” value (yeast gene YKR058W, energy system protein genes, 2 h culture with the chemical, ratio to control without chemical) of the same molecule?
A: 0.7

Q: What about the “The level of expressed mRNA in the presence of chemical substance/ (in its absence), gene YLR006C” value (yeast gene YLR006C, ratio of DNA chip fluorescence intensity to that without chemical substance) of the same molecule?
A: 0.8

Q: And the “The level of expressed mRNA in the presence of chemical substance/ (ratio to absence of chemical substance)” value (yeast gene YLR006C)?
A: 0.8

Q: What about the “The level of expressed mRNA in the presence of chemical substance/The level of expressed mRNA in the absence of chemical substance” value (yeast gene YLR120C) of the same molecule?
A: 4.8

Q: What about the “The level of expressed mRNA in the presence of chemical substance/The level of expressed mRNA in the absence of chemical substance” value (yeast gene YLR136C) of the same molecule?
A: 2.9

Q: What about the “The level of expressed mRNA in the presence of chemical substance/The level of expressed mRNA in the absence of chemical substance” value (yeast gene YLR178C) of the same molecule?
A: 7.5

Q: And the “The level of expressed mRNA in the presence of chemical substance/The level of expressed mRNA in the absence of chemical substance” value (yeast gene YLR250W)?
A: 1.2

Q: What about the “The level of expressed mRNA in the presence of chemical substance/ in its absence, gene YLR295C” value (yeast gene YLR295C, energy system protein genes, 2 h culture with the chemical, ratio to control without chemical) of the same molecule?
A: 0.8

Q: What about the “The level of expressed mRNA in the presence of chemical substance/ (ratio to absence), gene YLR295C” value (yeast gene YLR295C, mitochondria-located protein genes, 2 h culture with chemical) of the same molecule?
A: 0.8

Q: And the “The level of expressed mRNA in the presence of chemical substance/The level of expressed mRNA in the absence of chemical substance” value (yeast gene YLR327C)?
A: 2.8

Q: And the “The level of expressed mRNA in the presence of chemical substance/ (in its absence), gene YLR351C” value (yeast gene YLR351C, ratio of DNA chip fluorescence intensity to that without chemical substance)?
A: 0.9

Q: And the “The level of expressed mRNA in the presence of chemical substance/The level of expressed mRNA in the absence of chemical substance” value (yeast gene YLR356W)?
A: 2.5

Q: And the “The level of expressed mRNA in the presence of chemical substance/The level of expressed mRNA in the absence of chemical substance” value (yeast gene YLR362W)?
A: 2.4

Q: What about the “The level of expressed mRNA in the presence of chemical substance/ (in its absence), gene YLR375W” value (yeast gene YLR375W, ratio of DNA chip fluorescence intensity to that without chemical substance) of the same molecule?
A: 1.6

Q: And the “The level of expressed mRNA in the presence of chemical substance/The level of expressed mRNA in the absence of chemical substance” value (yeast gene YLR391W)?
A: 0.9

Q: And the “The level of expressed mRNA in the presence of chemical substance/The level of expressed mRNA in the absence of chemical substance” value (yeast gene YLR429W)?
A: 2.3

Q: What about the “The level of expressed mRNA in the presence of chemical substance/ in its absence, gene YML129C” value (yeast gene YML129C, energy system protein genes, 2 h culture with the chemical, ratio to control without chemical) of the same molecule?
A: 1.0

Q: And the “The level of expressed mRNA in the presence of chemical substance/ (ratio to absence), gene YML129C” value (yeast gene YML129C, mitochondria-located protein genes, 2 h culture with chemical)?
A: 1.0

Q: What about the “The level of expressed mRNA in the presence of chemical substance/The level of expressed mRNA in the absence of chemical substance” value (yeast gene YMR004W) of the same molecule?
A: 2.2

Q: What about the “The level of expressed mRNA in the presence of chemical substance/ (ratio to absence), gene YMR023C” value (yeast gene YMR023C, mitochondria-located protein genes, 2 h culture with chemical) of the same molecule?
A: 1.1

Q: What about the “The level of expressed mRNA in the presence of chemical substance/The level of expressed mRNA in the absence of chemical substance” value (yeast gene YMR094W) of the same molecule?
A: 1.4

Q: What about the “The level of expressed mRNA in the presence of chemical substance/The level of expressed mRNA in the absence of chemical substance” value (yeast gene YMR104C) of the same molecule?
A: 1.5

Q: And the “The level of expressed mRNA in the presence of chemical substance/ (ratio to absence of chemical substance)” value (yeast gene YMR186W)?
A: 2.4

Q: And the “The level of expressed mRNA in the presence of chemical substance/The level of expressed mRNA in the absence of chemical substance” value (yeast gene YMR219W)?
A: 2.1

Q: And the “The level of expressed mRNA in the presence of chemical substance/The level of expressed mRNA in the absence of chemical substance” value (yeast gene YMR226C)?
A: 1.6

Q: What about the “The level of expressed mRNA in the presence of chemical substance/ in its absence, gene YMR267W” value (yeast gene YMR267W, energy system protein genes, 2 h culture with the chemical, ratio to control without chemical) of the same molecule?
A: 0.7

Q: And the “The level of expressed mRNA in the presence of chemical substance/ (ratio to absence), gene YMR267W” value (yeast gene YMR267W, mitochondria-located protein genes, 2 h culture with chemical)?
A: 0.7

Q: And the “The level of expressed mRNA in the presence of chemical substance/ in its absence, gene YMR267W” value (yeast gene YMR267W, ratio of DNA chip fluorescence intensity to that without chemical substance)?
A: 0.7

Q: And the “The level of expressed mRNA in the presence of chemical substance/The level of expressed mRNA in the absence of chemical substance” value (yeast gene YMR275C)?
A: 2.1

Q: And the “The level of expressed mRNA in the presence of chemical substance/The level of expressed mRNA in the absence of chemical substance” value (yeast gene YMR276W)?
A: 1.9

Q: What about the “The level of expressed mRNA in the presence of chemical substance/ (in its absence), gene YMR278W” value (yeast gene YMR278W, ratio of DNA chip fluorescence intensity to that without chemical substance) of the same molecule?
A: 2.5

Q: What about the “The level of expressed mRNA in the presence of chemical substance/ (in its absence), gene YMR293C” value (yeast gene YMR293C, ratio of DNA chip fluorescence intensity to that without chemical substance) of the same molecule?
A: 0.8

Q: What about the “The level of expressed mRNA in the presence of chemical substance/The level of expressed mRNA in the absence of chemical substance” value (yeast gene YMR314W) of the same molecule?
A: 2.6

— patent US20050112573A1, “Method of detecting toxic substance” (priority 2001, published 2005)
